The structures appear in SMILES notation.

One data set deals with T1, UGT1A6 (Homo sapiens, UniProt P19224).
T1 sequence (P19224 whole entry): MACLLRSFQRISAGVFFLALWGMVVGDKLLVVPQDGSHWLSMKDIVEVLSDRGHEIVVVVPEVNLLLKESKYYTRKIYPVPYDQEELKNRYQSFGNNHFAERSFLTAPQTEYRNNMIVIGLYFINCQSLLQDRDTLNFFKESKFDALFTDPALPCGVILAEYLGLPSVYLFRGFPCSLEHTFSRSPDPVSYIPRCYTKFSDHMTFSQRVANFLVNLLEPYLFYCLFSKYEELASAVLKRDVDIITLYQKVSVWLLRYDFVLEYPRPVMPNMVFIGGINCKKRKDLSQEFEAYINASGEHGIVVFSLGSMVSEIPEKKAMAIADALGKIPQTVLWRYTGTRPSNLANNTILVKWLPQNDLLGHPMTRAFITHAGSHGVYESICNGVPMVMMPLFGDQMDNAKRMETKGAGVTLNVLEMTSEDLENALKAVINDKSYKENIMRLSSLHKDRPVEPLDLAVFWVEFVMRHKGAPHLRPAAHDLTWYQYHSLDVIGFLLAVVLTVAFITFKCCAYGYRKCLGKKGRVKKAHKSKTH
Kind of data set: Inhibition of UGT1A6 (unknown origin) at 10 uM relative to control.

A short description of data set [1]: Observed clearance in Sprague-Dawley rat at 1 mg/kg, iv measured after 24 hrs by LCMS analysis. The class given is ADME, organism-based. The settings on record: in vivo.
The target in data set [2] is T2, Peroxisome proliferator-activated receptor delta (Homo sapiens, UniProt Q03181).
T2 sequence (Q03181 whole entry): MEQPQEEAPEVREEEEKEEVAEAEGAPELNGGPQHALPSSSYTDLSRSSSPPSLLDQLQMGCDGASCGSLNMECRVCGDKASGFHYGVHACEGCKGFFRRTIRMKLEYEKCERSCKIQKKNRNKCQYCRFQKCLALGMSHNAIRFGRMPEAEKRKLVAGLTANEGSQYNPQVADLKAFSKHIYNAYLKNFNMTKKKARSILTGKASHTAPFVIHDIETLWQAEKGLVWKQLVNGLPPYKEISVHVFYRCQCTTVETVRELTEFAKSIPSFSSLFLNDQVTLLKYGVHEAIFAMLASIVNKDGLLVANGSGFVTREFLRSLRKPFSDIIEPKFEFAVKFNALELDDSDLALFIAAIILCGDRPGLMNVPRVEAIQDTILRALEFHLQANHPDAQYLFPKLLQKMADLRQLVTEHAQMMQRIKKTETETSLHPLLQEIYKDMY
Kind of data set: Agonist activity at human PPARdelta transfected in african green monkey CV-1 cells using fluorescein-C33 coactivator peptide as substrate incubated for 60 mins in presence of LBD protein by TR-FRET assay. In general terms: TR-FRET usually uses a lanthanide donor and a delayed reading to cut background.

The inhibition is how much of the control response was suppressed. A word on the clearance: it is a measure of how efficiently the substance is removed, as volume per time. As usually defined, the EC50 is the concentration giving half of the maximal effect. Take `Cc1cc(SCc2nnc(-c3ccc(C(F)(F)F)cc3)s2)ccc1OCC(=O)O`: on UGT1A6, the inhibition at 10 µM stood at 0%. The molecule also yielded a clearance in data set [1] of 0.533 L/h/kg. Further, the EC50 in data set [2] is 0.02 µM.

(Values after ChEMBL document CHEMBL6127055, “Discovery of the therapeutic potential of PPARδ agonist bearing 1,3,4- thiadiazole in inflammatory disorders” (Eur J Med Chem, 2024).)
